pIC50: −log10 of the molar value. Where two headings read alike, the source gives them in different places.
Legend:
h17β-HSD1 = biological target: T1, h17β-HSD1 (Homo sapiens, UniProt P14061); assay: Inhibition of h17β-HSD1 in cell-free assay; assay type: biochemical; conditions: human placental cytosolic fraction, substrate E1 [500 nM], cofactor NADH [500 μM]
T1 construct: h17β-HSD1 was obtained after precipitation with ammonium sulfate from the cytosolic fraction; from tissue; host or cells: human placenta, cytosolic fraction
T1 sequence (P14061 1-328): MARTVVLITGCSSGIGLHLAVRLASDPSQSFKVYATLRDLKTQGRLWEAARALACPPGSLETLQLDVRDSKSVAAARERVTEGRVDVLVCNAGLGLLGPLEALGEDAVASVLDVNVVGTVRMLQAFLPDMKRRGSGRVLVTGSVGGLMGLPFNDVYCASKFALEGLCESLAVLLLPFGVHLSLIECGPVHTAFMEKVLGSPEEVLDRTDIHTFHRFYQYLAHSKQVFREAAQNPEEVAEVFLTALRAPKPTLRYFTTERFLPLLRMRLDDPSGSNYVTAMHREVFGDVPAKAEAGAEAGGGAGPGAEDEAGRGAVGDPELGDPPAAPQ
Experimental: (§1) h17β-HSD2, h17β-HSD1, m17β-HSD2 and m17β-HSD1 cell-free assays were performed similarly, by incubating enzyme, tritiated substrate, cofactor and inhibitor, according to described procedures.
(§2) Cytosolic (h17β-HSD1) and microsomal (h17β-HSD2) fractions were obtained from human placenta according to previously described procedures. Fresh tissue was homogenized and the enzymes were separated from the mitochondria, cell membrane. Nucleus and other rests by fractional centrifugation at 1000 g, 10.000 g and 150.000 g. The pellet fraction containing the microsomal h17β-HSD2 was used for the determination of h17β-HSD2 inhibition, while h17β-HSD1 was obtained after precipitation with ammonium sulfate from the cytosolic fraction for use of testing of h17β-HSD1 inhibition. Aliquots containing h17β-HSD1 or h17β-HSD2 were stored frozen.
The 17β-HSD1 inhibition assay was performed similarly to the h17β-HSD2 test. The human cytosolic enzyme was incubated with NADH [500 μM] while the mouse recombinant enzyme was reacted with NADPH [500 μM].Test compound and a mixture of unlabelled- and [^3H]-E1 (final concentration: 500 nM, 0.15 μCi) were added and mixed for 10 min at 37°C. Further treatment of the samples and HPLC separation was carried out as mentioned above for h17β-HSD2.

[1] = Metabolic stability in a cell-free assay (liver S9 fraction); assay type: in vitro ADME; conditions: pooled liver S9 fraction; human liver S9 fraction 1 mg/ml, NADPH regenerating system, UDPGA, PAPS, 37°C; inhibitor 1 μM; read-out: Inhibitor t1/2
Experimental: Compounds 7a, 8a, 16a, 19a, 22a, 27a and 27 were tested according to established method[33–35]For evaluation of phase I and II metabolic stability 1 μM compound was incubated with 1 mg/ml pooled mammalian liver S9 fraction (BD Gentest), 2 mM NADPH regenerating system, 1 mM UDPGA and 0.1 mM PAPS at 37°C for 0, 5, 15 and 60 minutes at a final volume of 100 μL. The incubation was stopped by precipitation of S9 enzymes with 2 volumes of cold acetonitrile containing internal standard. Concentration of the remaining test compound at the different time points was analyzed by LC-MS/MS and used to determine half-life (t1/2).

h17β-HSD2 [2] = biological target: T2, h17β-HSD2 (Homo sapiens, UniProt P37059); assay: Inhibition of h17β-HSD2 in cell-free assay; assay type: biochemical; parameters: from tissue; host or cells: human placenta, microsomal fraction
T2 sequence (P37059 1-387): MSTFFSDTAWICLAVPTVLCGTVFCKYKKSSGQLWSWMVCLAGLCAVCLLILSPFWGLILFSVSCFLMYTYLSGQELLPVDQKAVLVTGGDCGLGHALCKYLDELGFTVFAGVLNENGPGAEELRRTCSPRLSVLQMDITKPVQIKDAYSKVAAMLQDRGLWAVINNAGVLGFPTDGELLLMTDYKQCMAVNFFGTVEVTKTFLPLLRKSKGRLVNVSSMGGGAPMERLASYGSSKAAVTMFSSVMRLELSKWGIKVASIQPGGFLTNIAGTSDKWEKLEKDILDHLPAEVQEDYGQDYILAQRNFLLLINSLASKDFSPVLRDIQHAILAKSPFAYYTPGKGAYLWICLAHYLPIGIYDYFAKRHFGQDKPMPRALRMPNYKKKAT
Experimental: as §1, §2
(§3) Inhibitory activities were evaluated following an established method with minor modifications. Briefly, the enzyme preparation was incubated with NAD^+ [1500 μM] in the presence of potential inhibitors at 37C in a phosphate buffer (50 mM) supplemented with 20% of glycerol and EDTA 1mM. Inhibitor stock solutions were prepared in DMSO. Final concentration of DMSO was adjusted to 1% in all samples. […] After 20 min, the incubation was stopped with HgCl2 and the mixture was extracted with ether. After evaporation, the steroids were dissolved in acetonitrile/water (45:55). […] Detection and quantification of the steroids were performed using a radioflow detector (Berthold Technologies, Bad Wildbad). […] Each value was calculated from at least two independent experiments.

m17β-HSD2 = biological target: T3, m17β-HSD2 (Mus musculus, UniProt P51658); assay: Inhibition of m17β-HSD2 in cell-free assay; assay type: biochemical; conditions: for % inh. at 1 μM m17β-HSD2: mouse liver microsomal fraction, substrate E2 [500 nM], cofactor NAD+ [1500 μM], Table 1
T3 construct: The microsomal fraction (m17β-HSD2) was obtained from mouse liver as described for h17β-HSD2; tissue Pharmacelsus GmbH (mouse livers); host or cells: mouse liver, microsomal fraction
T3 sequence (P51658 1-381): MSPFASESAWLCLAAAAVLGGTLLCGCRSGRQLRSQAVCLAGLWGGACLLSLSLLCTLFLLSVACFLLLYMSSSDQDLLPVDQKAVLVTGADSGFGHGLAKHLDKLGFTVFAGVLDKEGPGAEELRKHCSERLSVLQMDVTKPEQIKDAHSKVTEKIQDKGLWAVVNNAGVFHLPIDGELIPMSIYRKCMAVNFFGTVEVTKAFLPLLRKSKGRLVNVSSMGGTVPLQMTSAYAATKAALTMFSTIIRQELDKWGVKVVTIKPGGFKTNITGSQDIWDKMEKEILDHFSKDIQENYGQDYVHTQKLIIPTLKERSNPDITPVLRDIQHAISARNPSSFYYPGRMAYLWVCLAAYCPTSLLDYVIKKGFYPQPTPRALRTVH
Experimental: as §1
The microsomal fraction (m17β-HSD2) was obtained from mouse liver as described for h17β-HSD2. Inhibitory activities were evaluated by a method identical to the one described for the human enzyme.
as §3

ERα = biological target: T4, ERα (Homo sapiens, UniProt P03372); assay: Estrogen receptor affinity in a cell-free assay (ERα); assay type: binding; conditions: 1000-fold excess relative to E2; recombinant human ERα
T4 sequence (P03372 1-595): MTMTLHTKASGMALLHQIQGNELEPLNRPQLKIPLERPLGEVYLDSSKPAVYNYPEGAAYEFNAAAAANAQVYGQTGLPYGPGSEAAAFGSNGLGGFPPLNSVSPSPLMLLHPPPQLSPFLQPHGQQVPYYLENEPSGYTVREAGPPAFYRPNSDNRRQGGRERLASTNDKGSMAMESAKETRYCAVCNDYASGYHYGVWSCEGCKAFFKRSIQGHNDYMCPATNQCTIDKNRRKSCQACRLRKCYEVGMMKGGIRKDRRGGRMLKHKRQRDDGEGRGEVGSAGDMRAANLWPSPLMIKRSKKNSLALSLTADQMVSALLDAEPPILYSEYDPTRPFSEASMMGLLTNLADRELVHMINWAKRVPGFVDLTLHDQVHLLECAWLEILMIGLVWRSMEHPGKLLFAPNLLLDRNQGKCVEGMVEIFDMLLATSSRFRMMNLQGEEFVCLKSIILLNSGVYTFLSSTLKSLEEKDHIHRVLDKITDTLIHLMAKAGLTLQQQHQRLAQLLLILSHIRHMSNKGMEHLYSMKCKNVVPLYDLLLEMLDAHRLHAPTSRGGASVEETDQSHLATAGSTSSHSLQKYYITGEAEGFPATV
Experimental: (§4) The binding affinity of selected compounds to ERα and ERβ was determined according to the recommendations of the US Environmental Protection Agency (EPA) by their Endocrine Disruptor Screening Program (EDSP)[24] using recombinant human proteins.
(§5) The potential inhibitors were dissolved in DMSO (5% final concentration). […] After incubation, ligand-receptor complexes were selectively bound to hydroxyapatite (83.5 g/LinTE-buffer). The bound complex was washed three times and resuspended in ethanol. For radiodetection, scintillator cocktail (Quickszint 212, Zinsser Analytic, Frankfurt) was added and samples were measured in a liquid scintillation counter (1450 LSC & Luminescence Counter, Perkin Elmer).
(§6) After the assay was established and validated, a modification was made to increase throughput.

ERβ = ERβ (Homo sapiens, UniProt Q92731); assay: Estrogen receptor affinity in a cell-free assay (ERβ); assay type: binding; conditions: 1000-fold excess relative to E2; recombinant human ERβ
Chain of ERβ (Q92731 whole entry): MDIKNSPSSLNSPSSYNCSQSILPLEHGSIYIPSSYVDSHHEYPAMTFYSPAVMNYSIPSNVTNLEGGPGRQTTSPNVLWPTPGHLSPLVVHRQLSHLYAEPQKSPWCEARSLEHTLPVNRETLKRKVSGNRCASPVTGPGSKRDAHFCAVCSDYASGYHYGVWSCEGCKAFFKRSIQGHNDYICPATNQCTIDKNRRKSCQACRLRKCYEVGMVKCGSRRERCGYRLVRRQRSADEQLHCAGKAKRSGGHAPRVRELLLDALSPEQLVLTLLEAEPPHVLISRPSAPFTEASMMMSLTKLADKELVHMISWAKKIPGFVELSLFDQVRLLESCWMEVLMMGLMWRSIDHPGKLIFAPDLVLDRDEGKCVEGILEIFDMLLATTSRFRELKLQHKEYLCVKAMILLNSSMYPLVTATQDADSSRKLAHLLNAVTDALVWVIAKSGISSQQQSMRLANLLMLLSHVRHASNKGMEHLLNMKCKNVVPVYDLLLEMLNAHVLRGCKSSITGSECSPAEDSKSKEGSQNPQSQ
Experimental: as §4, §5, §6

h17β-HSD2 [3] = biological target: T2, h17β-HSD2; parameters: from tissue; host or cells: human placenta, microsomal fraction; conditions: human placental microsomal fraction, substrate E2 [500 nM], cofactor NAD+ [1500 μM]; previously described inhibitors; cited from earlier work

% inh. at 1 μM m17β-HSD2 (m17β-HSD2) [%]	Structure (SMILES)	pIC50 (h17β-HSD2 [3])	other results
	COc1cccc(CN(C)C(=O)c2ccc(-c3cccc(C)c3F)cc2)c1 [Compound 25a, 2'-Fluoro-N-(3-methoxybenzyl)-N,3'-dimethyl-[1,1'-biphenyl]-4-carboxamide]		pIC50 (h17β-HSD1): 4.06; half-life at 1 μM [1]: 1.72 h; pIC50 (h17β-HSD2 [2]): 6.51; s.f. (selectivity factor) = IC50(17β-HSD1)/IC50(17β-HSD2) (h17β-HSD2 [2]; human enzymes, cell-free): 283; inhibition at 1 µM (m17β-HSD2; read-out: % inh. at 1 μM m17β-HSD2): 43%; displacement of E2 from ERα (ERα): ≤ 20%; displacement of E2 from ERβ (ERβ): ≤ 20%
25	COc1cccc(-c2cccc(C(=O)N(C)c3cccc(OC)c3)c2)c1 [Compound 4a]	6.28	
29	CN(Cc1cccc(O)c1)C(=O)c1cccc(-c2cccc(O)c2)c1 [Compound 4e]	6.19	
40	COc1cccc(N(C)C(=O)c2ccc(-c3cccc(N(C)C)c3)s2)c1 [Compound 1g]	6.77	
26	COc1cccc(N(C)C(=O)c2ccc(-c3cccc(OC)c3F)s2)c1 [Compound 1j]	7.21	
